Values joined by “and” are separate entries in the source; they are usually repeats but may differ in a detail not shown here. Equal values may be shown once. Inconclusive results and toxic doses are left out.
Tested on: L1210 leukemia ip in BDF1 mice, survival T/C
Test: NCI In Vivo Anticancer Drug Screen. Data for tumor model L1210 Leukemia (intraperitoneal) in B6D2F1 (BDF1) mice
Details: endpoint: mean survival time, higher = longer survival
How it was run: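 Survival endpoint. Drug-treated group vs vehicle group, expressed as T divided by C. Tumor passaged by transplantation.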

CN(C)N=Nc1ccccc1
T/C (dose: 4.0 mg/kg/injection, schedule: Q03HX008 (ip), vehicle: other): 102 % of control
T/C (dose: 4.0 mg/kg/injection, schedule: Q03HX016 (ip), vehicle: other): 101 % of control
T/C (dose: 4.0 mg/kg/injection, schedule: Q03HX024 (ip), vehicle: other): 105 % of control
T/C (dose: 8.0 mg/kg/injection, schedule: Q03HX008 (ip), vehicle: other): 103 % of control
T/C (dose: 8.0 mg/kg/injection, schedule: Q03HX016 (ip), vehicle: other): 103 % of control
T/C (dose: 8.0 mg/kg/injection, schedule: Q03HX024 (ip), vehicle: other): 108 % of control
T/C (dose: 12.5 mg/kg/injection, schedule: Q04DX003 (ip), vehicle: saline with Tween-80): 102 % of control
T/C (dose: 15.0 mg/kg/injection, schedule: Q01DX015 (ip), vehicle: carboxymethylcellulose (CMC)): 104 % of control and 106 % of control and 107 % of control
T/C (dose: 16.0 mg/kg/injection, schedule: Q01DX005 (iv), vehicle: other): 111 % of control
T/C (dose: 16.0 mg/kg/injection, schedule: Q01DX009 (ip), vehicle: other): 103 % of control
T/C (dose: 16.0 mg/kg/injection, schedule: Q01DX009 (sc), vehicle: other): 107 % of control
T/C (dose: 16.0 mg/kg/injection, schedule: Q03HX008 (ip), vehicle: other): 114 % of control
T/C (dose: 16.0 mg/kg/injection, schedule: Q03HX016 (ip), vehicle: other): 117 % of control
T/C (dose: 18.0 mg/kg/injection, schedule: Q01DX015 (ip), vehicle: carboxymethylcellulose (CMC)): 104 % of control
T/C (dose: 25.0 mg/kg/injection, schedule: Q04DX003 (ip), vehicle: saline with Tween-80): 123 % of control
T/C (dose: 26.0 mg/kg/injection, schedule: Q01DX015 (ip), vehicle: carboxymethylcellulose (CMC)): 108 % of control
T/C (dose: 30.0 mg/kg/injection, schedule: Q01DX015 (ip), vehicle: carboxymethylcellulose (CMC)): 110 % of control and 207 % of control
T/C (dose: 31.25 mg/kg/injection, schedule: Q01DX001 (ip), vehicle: saline with Tween-80): 108 % of control
T/C (dose: 32.0 mg/kg/injection, schedule: Q01DX001 (ip), vehicle: other): 109 % of control
T/C (dose: 32.0 mg/kg/injection, schedule: Q01DX001 (sc), vehicle: other): 102 % of control
T/C (dose: 32.0 mg/kg/injection, schedule: Q01DX005 (iv), vehicle: other): 109 % of control
T/C (dose: 32.0 mg/kg/injection, schedule: Q01DX009 (ip), vehicle: other): 122 % of control
T/C (dose: 32.0 mg/kg/injection, schedule: Q01DX009 (sc), vehicle: other): 114 % of control
T/C (dose: 32.0 mg/kg/injection, schedule: Q03HX024 (ip), vehicle: other): 120 % of control
T/C (dose: 32.0 mg/kg/injection, schedule: Q04DX003 (ip), vehicle: other): 102 % of control
T/C (dose: 32.0 mg/kg/injection, schedule: Q04DX003 (ip), vehicle: saline): 117 % of control
T/C (dose: 32.0 mg/kg/injection, schedule: Q08DX002 (ip), vehicle: other): 107 % of control
T/C (dose: 50.0 mg/kg/injection, schedule: Q01DX001 (ip), vehicle: carboxymethylcellulose (CMC)): 97 % of control
T/C (dose: 50.0 mg/kg/injection, schedule: Q04DX003 (ip), vehicle: saline with Tween-80): 115 % of control
T/C (dose: 60.0 mg/kg/injection, schedule: Q01DX015 (ip), vehicle: carboxymethylcellulose (CMC)): 119 % of control and 88 % of control
T/C (dose: 62.5 mg/kg/injection, schedule: Q01DX001 (ip), vehicle: saline with Tween-80): 111 % of control
T/C (dose: 64.0 mg/kg/injection, schedule: Q01DX001 (ip), vehicle: other): 112 % of control
T/C (dose: 64.0 mg/kg/injection, schedule: Q01DX001 (sc), vehicle: other): 102 % of control
T/C (dose: 64.0 mg/kg/injection, schedule: Q01DX009 (ip), vehicle: other): 120 % of control
T/C (dose: 64.0 mg/kg/injection, schedule: Q01DX009 (oral), vehicle: other): 122 % of control
T/C (dose: 64.0 mg/kg/injection, schedule: Q04DX003 (ip), vehicle: other): 114 % of control
T/C (dose: 64.0 mg/kg/injection, schedule: Q08DX002 (ip), vehicle: other): 101 % of control
T/C (dose: 100.0 mg/kg/injection, schedule: Q01DX001 (ip), vehicle: carboxymethylcellulose (CMC)): 93 % of control
T/C (dose: 100.0 mg/kg/injection, schedule: Q04DX003 (ip), vehicle: saline with Tween-80): 105 % of control and 117 % of control
T/C (dose: 128.0 mg/kg/injection, schedule: Q01DX001 (ip), vehicle: other): 123 % of control
T/C (dose: 128.0 mg/kg/injection, schedule: Q01DX001 (oral), vehicle: other): 109 % of control
T/C (dose: 128.0 mg/kg/injection, schedule: Q01DX001 (sc), vehicle: other): 112 % of control
T/C (dose: 128.0 mg/kg/injection, schedule: Q01DX009 (oral), vehicle: other): 122 % of control
T/C (dose: 200.0 mg/kg/injection, schedule: Q01DX001 (ip), vehicle: carboxymethylcellulose (CMC)): 123 % of control
T/C (dose: 256.0 mg/kg/injection, schedule: Q01DX001 (sc), vehicle: other): 121 % of control

Reference: PubChem BioAssay AID248 (DTP/NCI, 2004)
